A value given as a limit tells only on which side of the number the result lay.

This note sets out measurements from patent US20260184710A1, “CASITAS B-LINEAGE LYMPHOMA PROTOONCOGENE B (CBL-B) DEGRADING COMPOUNDS AND ASSOCIATED METHODS OF USE” (Arvinas Operations, Inc., priority 2022, published 2026).

For assay [1], the target named is T1, Cbl-b (Homo sapiens, UniProt Q13191).
T1 construct: Cbl-b-HiBit KI Jurkat Cells were purchased from Promega; host or cells: Cbl-b-HiBiT knock-in Jurkat cells
T1 sequence (Q13191 whole entry): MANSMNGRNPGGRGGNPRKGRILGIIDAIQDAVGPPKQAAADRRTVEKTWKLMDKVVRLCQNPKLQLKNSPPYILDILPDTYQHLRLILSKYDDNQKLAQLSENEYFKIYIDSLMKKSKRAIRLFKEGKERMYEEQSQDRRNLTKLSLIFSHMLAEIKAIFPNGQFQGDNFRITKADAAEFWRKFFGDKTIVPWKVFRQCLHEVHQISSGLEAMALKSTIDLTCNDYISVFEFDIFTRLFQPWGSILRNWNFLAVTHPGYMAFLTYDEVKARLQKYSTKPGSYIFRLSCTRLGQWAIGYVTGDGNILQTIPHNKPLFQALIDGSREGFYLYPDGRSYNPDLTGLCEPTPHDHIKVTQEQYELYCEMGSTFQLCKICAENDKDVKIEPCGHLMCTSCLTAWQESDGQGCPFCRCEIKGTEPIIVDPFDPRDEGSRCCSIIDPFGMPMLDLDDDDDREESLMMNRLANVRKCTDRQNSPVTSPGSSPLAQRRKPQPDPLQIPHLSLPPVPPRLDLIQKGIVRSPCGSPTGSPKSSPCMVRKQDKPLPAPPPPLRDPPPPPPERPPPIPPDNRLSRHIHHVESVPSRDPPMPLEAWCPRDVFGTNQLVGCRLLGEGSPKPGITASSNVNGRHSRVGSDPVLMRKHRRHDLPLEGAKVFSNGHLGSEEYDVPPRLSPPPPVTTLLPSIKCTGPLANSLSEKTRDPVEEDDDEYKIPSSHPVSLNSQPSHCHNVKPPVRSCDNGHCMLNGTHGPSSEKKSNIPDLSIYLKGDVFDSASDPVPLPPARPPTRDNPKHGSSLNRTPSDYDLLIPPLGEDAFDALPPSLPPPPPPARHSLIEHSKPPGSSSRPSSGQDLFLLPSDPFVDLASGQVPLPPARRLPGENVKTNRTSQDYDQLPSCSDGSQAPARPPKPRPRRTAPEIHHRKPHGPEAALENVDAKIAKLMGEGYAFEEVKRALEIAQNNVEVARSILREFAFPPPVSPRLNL
Kind of assay: Cbl-b Degradation Method A (FACS, anti-Cbl-b antibody staining). In kind it is cell-based. Conditions: Cbl-b-HiBit KI Jurkat Cells, incubated at least 20 hours; for DC50: half maximal degradation, read-out: Cbl-b Degredation Method A IC50; for Dmax: Jurkat, maximum degradation observed, read-out: Cbl-b Degredation Method A Dmax (%). In outline: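 Cbl-b-HiBit KI Jurkat cells treated with compound for at least 20 h at 37 °C, then fixed, permeabilized and stained with anti-Cbl-b antibody plus anti-rabbit AF488 secondary. Cbl-b levels read by FACS; DC50 and Dmax (percent of control) derived.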

Assay [2] deals with T1, Cbl-b. Kind of assay: Cbl-b Degradation Method B (Nano-Glo HiBiT lytic detection). It is filed as cell-based. Conditions: Cbl-b-HiBit KI Jurkat Cells, incubated at least 6-24 hours; for DC50: half maximal degradation, read-out: Cbl-b Degredation Method B IC50; for Dmax / Cbl-b Degredation Method B Dmax (%): maximum degradation observed; for Dmax: read-out: Cbl-b Degredation Method B Dmax (%). In outline: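 Cbl-b-HiBiT knock-in Jurkat cells (20,000/well) were treated after ~24 h plating with an 11-point 1:3 series for 6-24 h at 37° C. Remaining Cbl-b measured by Nano-Glo HiBiT lytic luminescence. DC50 and Dmax expressed as % of control.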

As for `Cn1cnnc1CC1(c2cccc(N3Cc4c(cc(CN5CCN(C6CCC7(CC6)CCN(c6ccc8c(c6)C(=O)N(C6CCC(=O)NC6=O)C8=O)CC7)CC5)cc4C(F)(F)F)C3=O)c2)COC1` (stereo not shown) [Example 105, 2-(2,6-dioxopiperidin-3-yl)-5-[9-(4-{[2-(3-{3-[(4-methyl-4H-1,2,4-triazol-3-yl)methyl]oxetan-3-yl}phenyl)-3-oxo-7-(trifluoromethyl)-2,3-dihydro-1H-isoindol-5-yl]methyl}piperazin-1-yl)-3-azaspiro[5.5]undecan-3-yl]-2,3-dihydro-1H-isoindole-1,3-dione], the DC50 in assay [1] and in assay [2] was greater than 0.5 µM each time.

Consider `Cn1cnnc1CC1(c2cccc(N3Cc4c(cc(CN5CCCC(N6CC7(CCN(c8ccc9c(c8)C(=O)N(C8CCC(=O)NC8=O)C9=O)CC7)C6)C5)cc4C(F)(F)F)C3=O)c2)COC1` (stereo not shown) [Example 108, 2-(2,6-dioxopiperidin-3-yl)-5-[2-(1-{[2-(3-{3-[(4-methyl-4H-1,2,4-triazol-3-yl)methyl]oxetan-3-yl}phenyl)-3-oxo-7-(trifluoromethyl)-2,3-dihydro-1H-isoindol-5-yl]methyl}piperidin-3-yl)-2,7-diazaspiro[3.5]nonan-7-yl]-2,3-dihydro-1H-isoindole-1,3-dione], for which, in assay [1], the DC50 was in the range of 0.005 to 0.05 µM and the Dmax was less than 35%. Also, in assay [2], the DC50 lay within 0.005 to 0.05 µM and the Dmax lay within 35 to 70%.

Turning to `CC(C)n1c(=O)n(C2CCC(=O)NC2=O)c2cccc(N3CCC(O[C@H]4CC[C@H](CN5CCN(Cc6cc7c(c(C(F)(F)F)c6)CN(c6cccc([C@]8(Cc9nncn9C)C[C@@H](C#N)C8)c6)C7=O)C(C)(C)C5)CC4)CC3)c21` (stereo partly shown) [Example 302, (1r,3r)-3-(3-{6-[(2,2-dimethyl-4-{[(1r,4r)-4-({1-[1-(2,6-dioxopiperidin-3-yl)-2-oxo-3-(propan-2-yl)-2,3-dihydro-1H-1,3-benzodiazol-4-yl]piperidin-4-yl}oxy)cyclohexyl]methyl}piperazin-1-yl)methyl]-1-oxo-4-(trifluoromethyl)-2,3-dihydro-1H-isoindol-2-yl}phenyl)-3-[(4-methyl-4H-1,2,4-triazol-3-yl)methyl]cyclobutane-1-carbonitrile], in assay [1], the DC50 lay in the range of 0.05 to 0.5 µM and the Dmax was in the range of 35 to 70%. For the same molecule, in assay [2], the DC50 is 0.005 to 0.05 µM and the “Cbl-b Degredation Method B Dmax (%)” value is recorded as “C (C ≤ 35)”.

As to `Cn1cnnc1CC1(c2cccc(N3Cc4c(cc(N5CC6(CN(c7ccc8c(c7)C(=O)N(C7CCC(=O)NC7=O)C8=O)C6)C5)cc4C(F)(F)F)C3=O)c2)COC1` (stereo not shown) [Example 123, 2-(2,6-dioxopiperidin-3-yl)-5-{6-[2-(3-{3-[(4-methyl-4H-1,2,4-triazol-3-yl)methyl]oxetan-3-yl}phenyl)-3-oxo-7-(trifluoromethyl)-2,3-dihydro-1H-isoindol-5-yl]-2,6-diazaspiro[3.3]heptan-2-yl}-2,3-dihydro-1H-isoindole-1,3-dione], in assay [1], the DC50 lay in the range of 0.05 to 0.5 µM and the Dmax was in the range of 35 to 70%. Moreover, the DC50 in assay [2] is greater than 0.5 µM.

Take `CC1c2nc(N3CCC(CN4CCC(CN5CCN(Cc6cc7c(c(C(F)(F)F)c6)CN(c6cccc([C@]8(Cc9nncn9C)C[C@@H](C#N)C8)c6)C7=O)C(C)(C)C5)CC4)CC3)ccc2C(=O)N1C1CCC(=O)NC1=O` (stereo partly shown) [Example 303, (1r,3r)-3-(3-{6-[(4-{[1-({1-[6-(2,6-dioxopiperidin-3-yl)-7-methyl-5-oxo-5H,6H,7H-pyrrolo[3,4-b]pyridin-2-yl]piperidin-4-yl}methyl)piperidin-4-yl]methyl}-2,2-dimethylpiperazin-1-yl)methyl]-1-oxo-4-(trifluoromethyl)-2,3-dihydro-1H-isoindol-2-yl}phenyl)-3-[(4-methyl-4H-1,2,4-triazol-3-yl)methyl]cyclobutane-1-carbonitrile]: in assay [1], the DC50 was in the range of 0.005 to 0.05 µM and the Dmax is 35 to 70%. Moreover, in assay [2], the DC50 is less than 0.005 µM and the “Cbl-b Degredation Method B Dmax (%)” value is reported as “C (C ≤ 35)”.

With `Cn1cnnc1CC1(c2cccc(N3Cc4c(cc(CN5CCC(CN6CCC(C7CCN(c8ccc9c(c8)C(=O)N(C8CCC(=O)NC8=O)C9=O)CC7)CC6)CC5)cc4C(F)(F)F)C3=O)c2)COC1` (stereo not shown) [Example 77, 2-(2,6-dioxopiperidin-3-yl)-5-{1′-[(1-{[2-(3-{3-[(4-methyl-4H-1,2,4-triazol-3-yl)methyl]oxetan-3-yl}phenyl)-3-oxo-7-(trifluoromethyl)-2,3-dihydro-1H-isoindol-5-yl]methyl}piperidin-4-yl)methyl]-[4,4′-bipiperidin]-1-yl}-2,3-dihydro-1H-isoindole-1,3-dione], the DC50 in assay [1] and in assay [2] was greater than 0.5 µM throughout.

For the molecule `Cn1cnnc1CC1(c2cccc(N3Cc4c(cc(N5CCC6(CCN(c7ccc8c(c7)C(=O)N(C7CCC(=O)NC7=O)C8=O)CC6)CC5)cc4C(F)(F)F)C3=O)c2)COC1` (stereo not shown) [Example 125, 2-(2,6-dioxopiperidin-3-yl)-5-{9-[2-(3-{3-[(4-methyl-4H-1,2,4-triazol-3-yl)methyl]oxetan-3-yl}phenyl)-3-oxo-7-(trifluoromethyl)-2,3-dihydro-1H-isoindol-5-yl]-3,9-diazaspiro[5.5]undecan-3-yl}-2,3-dihydro-1H-isoindole-1,3-dione], the DC50 in assay [1] and in assay [2] was greater than 0.5 µM in each case.

Consider `Cn1cnnc1CC1(c2cccc(N3Cc4c(cc(N5CCC(CN6CCC7(CC6)CN(c6ccc8c(c6)C(=O)N(C6CCC(=O)NC6=O)C8=O)C7)CC5)cc4C(F)(F)F)C3=O)c2)COC1` (stereo not shown) [Example 23, 2-(2,6-dioxopiperidin-3-yl)-5-[7-({1-[2-(3-{3-[(4-methyl-4H-1,2,4-triazol-3-yl)methyl]oxetan-3-yl}phenyl)-3-oxo-7-(trifluoromethyl)-2,3-dihydro-1H-isoindol-5-yl]piperidin-4-yl}methyl)-2,7-diazaspiro[3.5]nonan-2-yl]-2,3-dihydro-1H-isoindole-1,3-dione], for which, in assay [1], the DC50 fell in the range of 0.05 to 0.5 µM and the maximal degradation (Dmax) is less than 35%. The DC50 in assay [2] is greater than 0.5 µM.

For `Cn1cnnc1CC1(c2cccc(N3Cc4c(cc(CN5CCN(C6CC7(C6)CN(c6ccc8c(c6)C(=O)N(C6CCC(=O)NC6=O)C8=O)C7)CC5)cc4C(F)(F)F)C3=O)c2)COC1` (stereo not shown) [Example 107, 2-(2,6-dioxopiperidin-3-yl)-5-[6-(4-{[2-(3-{3-[(4-methyl-4H-1,2,4-triazol-3-yl)methyl]oxetan-3-yl}phenyl)-3-oxo-7-(trifluoromethyl)-2,3-dihydro-1H-isoindol-5-yl]methyl}piperazin-1-yl)-2-azaspiro[3.3]heptan-2-yl]-2,3-dihydro-1H-isoindole-1,3-dione], in assay [1], the DC50 is 0.005 to 0.05 µM and the Dmax was less than 35%. In assay [2], the DC50 is greater than 0.5 µM.

As for `CC1CC(CN2CCC(CC3CCN(c4ccc5c(c4)C(=O)N(C4CCC(=O)NC4=O)C5=O)CC3)CC2)CN(Cc2cc3c(c(C(F)(F)F)c2)CN(c2cccc(C4(Cc5nncn5C)COC4)c2)C3=O)C1` (stereo not shown) [Example 94, 2-(2,6-dioxopiperidin-3-yl)-5-[4-({1-[(5-methyl-1-{[2-(3-{3-[(4-methyl-4H-1,2,4-triazol-3-yl)methyl]oxetan-3-yl}phenyl)-3-oxo-7-(trifluoromethyl)-2,3-dihydro-1H-isoindol-5-yl]methyl}piperidin-3-yl)methyl]piperidin-4-yl}methyl)piperidin-1-yl]-2,3-dihydro-1H-isoindole-1,3-dione], in assay [1], the DC50 fell in the range of 0.005 to 0.05 µM and the Dmax fell in the range of 35 to 70%. In assay [2], the DC50 was less than 0.005 µM and the Dmax lay in the range of 35 to 70%.
